According to patent US20220152031A1, “PYRIDAZINONES AND METHODS OF USE THEREOF” (Goldfinch Bio, Inc., priority 2019, published 2022):

Target: T1, TRPC5 (Homo sapiens, UniProt Q9UL62)
T1 construct: expressed in transfected cells
T1 sequence (Q9UL62 1-973): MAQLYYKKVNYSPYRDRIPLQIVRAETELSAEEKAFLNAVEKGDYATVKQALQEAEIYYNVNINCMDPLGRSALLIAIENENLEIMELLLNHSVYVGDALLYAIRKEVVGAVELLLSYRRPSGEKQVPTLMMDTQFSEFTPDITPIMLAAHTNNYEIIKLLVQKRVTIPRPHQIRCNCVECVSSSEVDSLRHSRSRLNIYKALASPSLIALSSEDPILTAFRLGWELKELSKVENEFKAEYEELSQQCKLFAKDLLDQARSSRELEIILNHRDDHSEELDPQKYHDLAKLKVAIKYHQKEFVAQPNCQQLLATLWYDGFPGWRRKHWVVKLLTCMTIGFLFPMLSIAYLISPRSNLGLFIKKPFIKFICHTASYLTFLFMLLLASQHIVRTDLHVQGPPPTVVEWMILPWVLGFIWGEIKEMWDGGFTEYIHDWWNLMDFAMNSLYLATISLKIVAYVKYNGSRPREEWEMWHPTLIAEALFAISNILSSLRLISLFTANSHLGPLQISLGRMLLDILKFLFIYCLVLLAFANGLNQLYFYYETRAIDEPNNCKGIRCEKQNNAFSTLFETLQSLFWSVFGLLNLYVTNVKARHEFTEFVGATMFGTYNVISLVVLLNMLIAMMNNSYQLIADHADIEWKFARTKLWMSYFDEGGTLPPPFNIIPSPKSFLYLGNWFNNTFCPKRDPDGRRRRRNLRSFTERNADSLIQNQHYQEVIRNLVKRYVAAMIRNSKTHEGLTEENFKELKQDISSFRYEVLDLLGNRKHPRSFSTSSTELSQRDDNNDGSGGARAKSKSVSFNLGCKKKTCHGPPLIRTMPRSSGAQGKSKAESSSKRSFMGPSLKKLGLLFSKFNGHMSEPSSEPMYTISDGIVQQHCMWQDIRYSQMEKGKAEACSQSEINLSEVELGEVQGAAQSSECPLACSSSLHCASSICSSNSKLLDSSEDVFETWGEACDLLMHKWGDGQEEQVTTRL
Experiment: TRPC5 activity assay (FLIPR calcium fluorescence, HEK-TREx hTRPC5 cells)
Format: cell-based
Details: HEK-TREx hTRPC5 cells, FLIPR, 30 μM Riluzole stimulation; read-out: TRPC5
Protocol: ICLN-1633 cells (HEK-TREx hTRPC5) expressing TRPC5 were generated as follows. Commercially available HekTrex-293 cells were seeded at 0.7×10^6 cells/well in a 1×6-well plate 24 hrs prior to transfection using 2 mL cell growth media containing no antibiotics (lx DMEM/high glucose (Hyclone #SH30022.02); 10% fetal bovine serum (Sigma) 2 mM sodium pyruvate, 10 mM HEPES). […] On day 2, 2 μg of plasmid DNA plus 6 μl of Xtreme-GENE HP reagent in Optimem (200 μl total volume) was prepared and incubated for 15 min at room temperature. This plasmid solution was then gently overlayed dropwise onto each well and the plate was gently swirled to mix complex with the media for approximately 30 seconds. Transfected cells were incubated at 37° C. in a 10% CO2 incubator for 24 hrs. The transfected cells were harvested and transferred into 2×150 mm dishes containing cell growth media with no antibiotics at 37° C.
The next day selection was initiated to generate a stable pool by adding cell growth media containing 150 μg/mL Hygromycin and 5 μg/mL Blasticidin and cells were allowed to grow. Media with the selection agent was changed every 1-2 days as needed to remove dead cells. After 7 days, the hygromycin concentration was reduced to 75 μg/mL and cells growth was allowed to continue.
Single clones were selected as follows. The stable pool was diluted to 10 cells/mL and seeded (100 μl/well) into 24×96 well plates (˜1 cell/well) and allowed to grow for 7 days in cell growth media. Fresh media (100 μl) was added and the cells allowed to grow for another 1-2 weeks and then stored frozen or used immediately.
10-point dose response curves were generated using the Echo-550 acoustic dispenser. Compound source plates were made by serially diluting compound stocks to create 10 mM, 1 mM, and 0.1 mM solutions in DMSO into Echo certified LDV plates. The Echo then serially spotted 100% DMSO stock solutions into source dose response plates to generate a 4-fold dilution scheme. 100% DMSO was added to the spotted dose response plates to bring the final volume to 5 μl. 300 nl of the dose response stock plate was then spotted into pre-incubation and stimulation assay plates. 50 μl of pre-incubation buffer and 100 μl of stimulation buffer was then added to the plates resulting in a final assay test concentration range of 30 μM to 0.0001 μM with a final DMSO concentration of 0.3%.
Human ICLN-1633 cells expressing were plated onto 384 well, black PDL-coated microplates and maintained in TRPC5 growth media the day prior to use for experiments. TRPC5 expression was induced by the application of 1 μg/mL tetracycline at the time of plating. […] Cells are incubated at room temperature, protected from light, for 60-90 minutes. After the incubation period, the dye is removed and replaced with 10 μl of EBSS. Cell, pre-incubation and stimulation plates are loaded onto the FLIPR-II and the assay is initiated. The FLIPR measures a 10 second baseline and then adds 10 μl of 2× compounds (or controls). Changes in fluorescence are monitored for an additional 5 minutes. After the 5 minute pre-incubation, 20 μl of 2× Riluzole (with 1× compound or controls) is added to the cell plate. The final Riluzole stimulation concentration in the assay is 30 μM. After the Riluzole addition, changes in fluorescence are monitored for an additional 5 minutes.
Compound modulation of TRPC5 calcium response was determined as follows. After the Englerin A, fluorescence was monitored for a 5-minute period. The maximum relative fluorescence response (minus the control response of 1 μM of an internal control compound known to maximally block TRPC5 calcium response, the “REF INHIB” in the formula below) was captured and exported from the FLIPR.
Compound effect is calculated as % inhibition using the following formula: […]
wherein “RFU” is the relative fluorescent units.

Compound	IC50 [nM]
C[C@@H](O)c1nc2c(c(Oc3ccccc3C(F)(F)F)n1)CCN(c1cn[nH]c(=O)c1Cl)C2 (single isomer, unassigned) [Compound 122]	< 50
C[C@H](O)c1nc2c(c(Oc3ccccc3C(F)(F)F)n1)CCN(c1cn[nH]c(=O)c1Cl)C2 (single isomer, unassigned) [Compound 123]	50 to 500
O=c1[nH]ncc(N2CCc3c(ncnc3Oc3ccccc3Cl)C2)c1Cl [Compound 101]	< 50
Nc1nc2c(c(Oc3ccccc3C(F)(F)F)n1)CCN(c1cn[nH]c(=O)c1Cl)C2 [Compound 102]	< 50
O=c1[nH]ncc(N2CCc3c(ncnc3Oc3ccccc3C(F)F)C2)c1Cl [Compound 103, 4-Chloro-5-[4-[2-(difluoromethyl)phenoxy]-5H,6H,7H,8H-pyrido[3,4-d]pyrimidin-7-yl]-2,3-dihydropyridazin-3-one]	< 50
O=c1[nH]ncc(N2CCc3c(ncnc3Oc3ccc(F)cc3C(F)F)C2)c1Cl [Compound 105]	< 50
O=c1[nH]ncc(N2CCc3c(ncnc3Oc3cc(F)ccc3C(F)(F)F)C2)c1Cl [Compound 106]	< 50
O=c1[nH]ncc(N2CCc3c(ncnc3Oc3cnccc3C(F)(F)F)C2)c1Cl [Compound 107]	< 50
N#Cc1cccc(Oc2ncnc3c2CCN(c2cn[nH]c(=O)c2Cl)C3)c1Cl [Compound 108, 2-Chloro-3-[[7-(5-chloro-6-oxo-1,6-dihydropyridazin-4-yl)-5H,6H,7H,8H-pyrido[3,4-d]pyrimidin-4-yl]oxy]benzonitrile]	50 to 500
CCc1c(F)cccc1Oc1ncnc2c1CCN(c1cn[nH]c(=O)c1Cl)C2 [Compound 109, 4-Chloro-5-[4-(2-ethyl-3-fluorophenoxy)-5H,6H,7H,8H-pyrido[3,4-d]pyrimidin-7-yl]-2,3-dihydropyridazin-3-one]	< 50
COc1nc2c(c(Oc3ccccc3C(F)(F)F)n1)CCN(c1cn[nH]c(=O)c1Cl)C2 [Compound 110, 4-Chloro-5-[2-methoxy-4-[2-(trifluoromethyl)phenoxy]-5H,6H,7H,8H-pyrido[3,4-d]pyrimidin-7-yl]-2,3-dihydropyridazin-3-one]	50 to 500
N#Cc1cccc(Oc2ncnc3c2CCN(c2cn[nH]c(=O)c2Cl)C3)c1C(F)(F)F [Compound 111, 3-[[7-(5-Chloro-6-oxo-1,6-dihydropyridazin-4-yl)-5H,6H,7H,8H-pyrido[3,4-d]pyrimidin-4-yl]oxy]-2-(trifluoromethyl)benzonitrile]	50 to 500
Nc1nc2c(c(Oc3ccc(F)cc3Cl)n1)CCN(c1cn[nH]c(=O)c1Cl)C2 [Compound 112, 5-[2-amino-4-(2-chloro-4-fluorophenoxy)-5H,6H,7H,8H-pyrido[3,4-d]pyrimidin-7-yl]-4-chloro-2,3-dihydropyridazin-3-one]	< 50
Nc1nc2c(c(Oc3ccccc3Cl)n1)CCN(c1cn[nH]c(=O)c1Cl)C2 [Compound 113]	< 50
O=c1[nH]ncc(N2CCc3c(nc(CO)nc3Oc3ccc(F)cc3Cl)C2)c1Cl [Compound 114]	< 50
O=c1[nH]ncc(N2CCc3c(nc(NCCO)nc3Oc3ccccc3C(F)(F)F)C2)c1Cl [Compound 115, 4-chloro-5-[2-[(2-hydroxyethyl)amino]-4-[2-(trifluoromethyl)phenoxy]-5H,6H,7H,8H-pyrido[3,4-d]pyrimidin-7-yl]-2,3-dihydropyridazin-3-one]	50 to 500
Nc1nc2c(c(Oc3ccc(F)cc3C(F)(F)F)n1)CCN(c1cn[nH]c(=O)c1Cl)C2 [Compound 116]	< 50
C[C@@H]1c2ncnc(Oc3ccc(F)cc3Cl)c2CCN1c1cn[nH]c(=O)c1Cl [Compound 118, 4-chloro-5-[(8R)-4-(2-chloro-4-fluorophenoxy)-8-methyl-5H,6H,7H,8H-pyrido[3,4-d]pyrimidin-7-yl]-2,3-dihydropyridazin-3-one]	50 to 500
C[C@@H](O)c1nc2c(c(Oc3ccc(F)cc3Cl)n1)CCN(c1cn[nH]c(=O)c1Cl)C2 [Compound 119]	< 50
O=c1[nH]ncc(N2CCc3c(ccnc3Oc3ccc(F)cc3C(F)(F)F)C2)c1Cl [Compound 120, 4-chloro-5-[5-[4-fluoro-2-(trifluoromethyl)phenoxy]-1,2,3,4-tetrahydro-2,6-naphthyridin-2-yl]-2,3-dihydropyridazin-3-one]	< 50
O=c1[nH]ncc(N2CCc3c(ncnc3Oc3c(F)cccc3C(F)(F)F)C2)c1Cl [Compound 121]	< 50
Cc1cc(F)ccc1Oc1ncnc2c1CCN(c1cn[nH]c(=O)c1Cl)C2 [Compound 124]	< 50
O=c1[nH]ncc(N2CCc3c(nc(CO)nc3Oc3ccc(F)cc3C(F)(F)F)C2)c1Cl [Compound 125]	< 50
CN(c1ccc(F)cc1C(F)(F)F)c1cc(=O)n(C)c2c1CCN(c1cn[nH]c(=O)c1Cl)C2 [Compound 127, 7-(5-Chloro-6-oxo-1,6-dihydropyridazin-4-yl)-4-[[4-fluoro-2-(trifluoromethyl)phenyl](methyl)amino]-1-methyl-1,2,5,6,7,8-hexahydro-1,7-naphthyridin-2-one]	50 to 500
O=c1[nH]ncc(N2CCc3c(nc(CO)nc3Oc3ccccc3C(F)(F)F)C2)c1Cl [Compound 128]	< 50
CN(c1cnccc1C(F)(F)F)c1ncnc2c1CCN(c1cn[nH]c(=O)c1Cl)C2 [Compound 131, 4-chloro-5-(4-[methyl[4-(trifluoromethyl)pyridin-3-yl]amino]-5H,6H,7H,8H-pyrido[3,4-d]pyrimidin-7-yl)-2,3-dihydropyridazin-3-one]	< 50
O=c1[nH]ncc(N2CCc3c(ncnc3C3(c4ccc(F)cc4C(F)(F)F)CC3)C2)c1Cl [Compound 132, 4-Chloro-5-(4-[1-[4-fluoro-2-(trifluoromethyl)phenyl]cyclopropyl]-5H,6H,7H,8H-pyrido[3,4-d]pyrimidin-7-yl)-2,3-dihydropyridazin-3-one]	50 to 500
C[C@@H]1CCN(Cc2ccccc2)C[C@@H]1N(C)c1ncnc2c1CCN(c1cn[nH]c(=O)c1Cl)C2 [Compound 133, 5-(4-[[(3R,4R)-1-Benzyl-4-methylpiperidin-3-yl](methyl)amino]-5H,6H,7H,8H-pyrido[3,4-d]pyrimidin-7-yl)-4-chloro-2,3-dihydropyridazin-3-one]	50 to 500
C[C@H]1CCN(Cc2ccccc2)C[C@H]1N(C)c1ncnc2c1CCN(c1cn[nH]c(=O)c1Cl)C2 [Compound 133a]	500 to 1000
